# Numbers after ± are expanded uncertainties.
# Test: activity coefficient (dimensionless); of the first substance listed, at infinite dilution; xn = mol fraction of the nth substance listed
# Conditions: 101 kPa, Liquid, Chromatography, x1 = 0
Compound,activity coefficient (318.15 K),activity coefficient (328.15 K),activity coefficient (338.15 K),activity coefficient (348.15 K),activity coefficient (358.15 K),activity coefficient (368.15 K)
"Cc1ccccc1C [1,2-dimethylbenzene] + CCCC[N+]1(C)CCOCC1.N#C[C-](C#N)C#N",2.96 ± 0.2,2.99 ± 0.2,3.02 ± 0.21,3.04 ± 0.21,3.07 ± 0.21,3.08 ± 0.21
"Cc1cccc(C)c1 [1,3-dimethylbenzene] + CCCC[N+]1(C)CCOCC1.N#C[C-](C#N)C#N",3.54 ± 0.24,3.56 ± 0.24,3.61 ± 0.25,3.61 ± 0.25,3.62 ± 0.25,3.62 ± 0.25
"Cc1ccc(C)cc1 [1,4-dimethylbenzene] + CCCC[N+]1(C)CCOCC1.N#C[C-](C#N)C#N",3.49 ± 0.24,3.52 ± 0.24,3.54 ± 0.24,3.57 ± 0.24,3.59 ± 0.24,3.63 ± 0.25
"C1COCCO1 [1,4-dioxane] + CCCC[N+]1(C)CCOCC1.N#C[C-](C#N)C#N",0.707 ± 0.047,0.74 ± 0.049,0.772 ± 0.05,0.798 ± 0.052,0.831 ± 0.054,0.853 ± 0.055
C=CCCCCCCCC [1-decene] + CCCC[N+]1(C)CCOCC1.N#C[C-](C#N)C#N,118 ± 8,110 ± 8,101 ± 7,94.5 ± 6.5,87.8 ± 6,81.4 ± 5.6
C=CCCCCC [1-heptene] + CCCC[N+]1(C)CCOCC1.N#C[C-](C#N)C#N,34.1 ± 2.3,32 ± 2.2,30.2 ± 2.1,28.7 ± 2,27.2 ± 1.9,25.7 ± 1.8
C#CCCCCC [1-heptyne] + CCCC[N+]1(C)CCOCC1.N#C[C-](C#N)C#N,8.28 ± 0.56,8.26 ± 0.56,8.2 ± 0.56,8.2 ± 0.56,8.13 ± 0.55,8.05 ± 0.55
C#CCCCC [1-hexyne] + CCCC[N+]1(C)CCOCC1.N#C[C-](C#N)C#N,5.47 ± 0.37,5.5 ± 0.37,5.5 ± 0.37,5.54 ± 0.38,5.53 ± 0.38,5.51 ± 0.38
CCC[N+](=O)[O-] [1-nitropropane] + CCCC[N+]1(C)CCOCC1.N#C[C-](C#N)C#N,0.982 ± 0.062,0.99 ± 0.062,0.998 ± 0.062,1 ± 0.06,1.01 ± 0.06,1.01 ± 0.06
C#CCCCCCC [1-octyne] + CCCC[N+]1(C)CCOCC1.N#C[C-](C#N)C#N,12.8 ± 0.9,12.6 ± 0.9,12.4 ± 0.8,12.2 ± 0.8,12 ± 0.8,11.8 ± 0.8
C#CCCC [1-pentyne] + CCCC[N+]1(C)CCOCC1.N#C[C-](C#N)C#N,3.69 ± 0.25,3.73 ± 0.25,3.75 ± 0.26,3.8 ± 0.26,3.81 ± 0.26,3.83 ± 0.26
"CC(C)CC(C)(C)C [2,2,4-trimethylpentane] + CCCC[N+]1(C)CCOCC1.N#C[C-](C#N)C#N",103 ± 7,93.4 ± 6.4,84.2 ± 5.8,76.9 ± 5.3,70.8 ± 4.9,64.5 ± 4.4
"CCC(C)(C)C [2,2-dimethylbutane] + CCCC[N+]1(C)CCOCC1.N#C[C-](C#N)C#N",56.7 ± 3.9,49.8 ± 3.4,44.5 ± 3,40.9 ± 2.8,37.7 ± 2.6,34.8 ± 2.4
CCOC(C)(C)C [2-ethoxy-2-methylpropane] + CCCC[N+]1(C)CCOCC1.N#C[C-](C#N)C#N,16.8 ± 1.1,16.2 ± 1.1,15.6 ± 1.1,15.3 ± 1,14.9 ± 1,14.6 ± 1
CCC(C)(C)OC [2-methoxy-2-methylbutane] + CCCC[N+]1(C)CCOCC1.N#C[C-](C#N)C#N,8.61 ± 0.59,8.52 ± 0.58,8.42 ± 0.57,8.37 ± 0.57,8.29 ± 0.57,8.21 ± 0.56
COC(C)(C)C [2-methoxy-2-methylpropane] + CCCC[N+]1(C)CCOCC1.N#C[C-](C#N)C#N,5.74 ± 0.39,5.77 ± 0.39,5.74 ± 0.39,5.76 ± 0.39,5.77 ± 0.39,5.78 ± 0.39
CC(C)CO [2-methyl-1-propanol] + CCCC[N+]1(C)CCOCC1.N#C[C-](C#N)C#N,2.19 ± 0.15,2.03 ± 0.14,1.87 ± 0.13,1.74 ± 0.12,1.65 ± 0.11,1.56 ± 0.1

# Reference: the NIST ThermoML archive (doi:10.1016/j.jct.2013.08.030)
